Results as given in ChEMBL document CHEMBL1201862, “PubChem BioAssay data set” (2004).
Calls of active or inactive are those of the source.

What was measured:
[1] = biological target: Disintegrin and metalloproteinase domain-containing protein 17 (Homo sapiens, UniProt P78536); assay: exosite inhibitors of ADAM17, dose response, biochemical (AID 743260)
[2] = inhibition of ADAM10 peptide cleavage – biochemical, FRET peptide substrate, recombinant human ADAM10, selectivity assay for ADAM17 exosite inhibitor project, dose response (AID 743259);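 further: ADAM10 enzyme cleaving a FRET peptide substrate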
[3] = TNFa-induced NF-kB reporter signal decrease – HEK293 LMP1 reporter cells, dry powder, set 2, selectivity assay for EBV LMP1 NF-kB inhibitor project, dose response (AID 624369); assay type: functional
[4] = inhibitors of EBV LMP1 NF-kappaB signaling – cell-based, luciferase reporter, luminescence, dry powder, set 2, dose response (AID 624376); assay type: functional
[5] = cytotoxicity in HEK293 background cells – cell-based, dry powder, set 2, counter-screen for EBV LMP1 inhibitor project, dose response (AID 624374); assay type: functional
[6] = biological target: Protein disulfide-isomerase (Homo sapiens, UniProt P07237); assay: inhibition of PDI-mediated insulin reduction – biochemical, turbidity, dry powder samples, set 2, confirmation (AID 652146)
Chain of Protein disulfide-isomerase (P07237 whole entry): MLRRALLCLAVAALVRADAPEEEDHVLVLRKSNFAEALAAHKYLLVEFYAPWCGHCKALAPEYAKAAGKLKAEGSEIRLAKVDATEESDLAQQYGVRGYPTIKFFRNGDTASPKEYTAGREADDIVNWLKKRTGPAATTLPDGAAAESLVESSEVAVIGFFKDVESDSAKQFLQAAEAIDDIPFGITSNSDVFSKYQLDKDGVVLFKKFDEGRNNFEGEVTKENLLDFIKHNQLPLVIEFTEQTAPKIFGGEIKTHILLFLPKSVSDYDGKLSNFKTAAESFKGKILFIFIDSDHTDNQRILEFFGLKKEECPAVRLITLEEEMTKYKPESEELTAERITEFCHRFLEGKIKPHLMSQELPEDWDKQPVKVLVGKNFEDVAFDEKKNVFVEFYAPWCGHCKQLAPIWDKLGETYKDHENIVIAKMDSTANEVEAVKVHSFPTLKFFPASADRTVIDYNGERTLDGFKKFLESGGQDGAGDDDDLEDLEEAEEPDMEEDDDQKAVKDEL

[7] = cytotoxicity in MITF-independent A375 cells – cell-based, CellTiter-Glo luminescence, dry powder, set 4, counter-screen for MITF inhibitor project, dose response (AID 624364); assay type: functional; conditions: A-375;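 further: A375 melanoma cells are MITF independent so this is a counter screen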
[8] = viability loss in MITF-independent A375 cells – cell-based, CellTiter-Glo luminescence, dry powder, set 2, counter-screen for MITF inhibitor project, dose response (AID 624489); assay type: functional; conditions: A-375;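 further: actives are compounds lowering A375 viability meaning general cytotoxicity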
NS3 = NS3 (Hepatitis C virus, UniProt A3EZJ3); assay: NS3h DNA-binding inhibition IC50 – biochemical, fluorescence polarization, ChemBridge library, dose response (AID 743264)
Chain of NS3 (A3EZJ3 whole entry): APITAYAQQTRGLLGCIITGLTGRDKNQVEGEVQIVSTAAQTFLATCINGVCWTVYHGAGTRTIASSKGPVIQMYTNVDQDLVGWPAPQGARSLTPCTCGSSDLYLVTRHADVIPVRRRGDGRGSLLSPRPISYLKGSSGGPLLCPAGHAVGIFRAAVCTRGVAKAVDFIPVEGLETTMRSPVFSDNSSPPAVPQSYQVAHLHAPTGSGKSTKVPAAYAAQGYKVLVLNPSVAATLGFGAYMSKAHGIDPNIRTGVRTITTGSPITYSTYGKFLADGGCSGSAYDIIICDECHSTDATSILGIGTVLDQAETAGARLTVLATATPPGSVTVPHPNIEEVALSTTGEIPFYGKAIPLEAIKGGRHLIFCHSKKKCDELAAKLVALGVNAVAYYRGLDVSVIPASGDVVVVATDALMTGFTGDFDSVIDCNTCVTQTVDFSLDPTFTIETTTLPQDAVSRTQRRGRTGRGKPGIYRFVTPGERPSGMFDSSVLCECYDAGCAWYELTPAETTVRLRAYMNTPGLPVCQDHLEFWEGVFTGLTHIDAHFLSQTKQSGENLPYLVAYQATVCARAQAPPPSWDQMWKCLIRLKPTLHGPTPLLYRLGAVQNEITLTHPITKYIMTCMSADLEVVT

Chain of Disintegrin and metalloproteinase domain-containing protein 17 (P78536 whole entry, the tested form may be a part): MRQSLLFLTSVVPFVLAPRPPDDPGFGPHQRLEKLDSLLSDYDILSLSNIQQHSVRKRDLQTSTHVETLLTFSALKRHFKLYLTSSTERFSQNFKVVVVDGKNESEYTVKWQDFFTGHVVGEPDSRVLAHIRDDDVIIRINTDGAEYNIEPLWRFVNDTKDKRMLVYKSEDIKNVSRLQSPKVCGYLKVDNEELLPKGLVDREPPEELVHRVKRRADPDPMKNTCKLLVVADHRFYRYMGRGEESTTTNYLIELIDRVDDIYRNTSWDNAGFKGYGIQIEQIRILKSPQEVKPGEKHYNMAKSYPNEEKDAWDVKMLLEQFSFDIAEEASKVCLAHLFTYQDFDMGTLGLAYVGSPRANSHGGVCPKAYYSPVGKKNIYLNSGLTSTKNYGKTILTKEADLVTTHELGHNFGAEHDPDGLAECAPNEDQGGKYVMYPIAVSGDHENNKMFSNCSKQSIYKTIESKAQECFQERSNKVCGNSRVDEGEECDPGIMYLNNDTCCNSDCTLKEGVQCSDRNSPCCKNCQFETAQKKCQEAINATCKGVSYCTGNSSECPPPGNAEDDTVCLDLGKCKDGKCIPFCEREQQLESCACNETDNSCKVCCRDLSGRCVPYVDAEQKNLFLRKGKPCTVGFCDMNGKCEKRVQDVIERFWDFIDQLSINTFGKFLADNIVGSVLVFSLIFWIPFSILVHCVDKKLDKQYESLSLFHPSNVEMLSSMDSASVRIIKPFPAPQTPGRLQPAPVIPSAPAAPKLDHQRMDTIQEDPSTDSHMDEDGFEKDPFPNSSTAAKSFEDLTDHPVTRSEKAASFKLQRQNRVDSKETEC

COc1ccc(C(c2nnnn2Cc2ccccc2)N2CCN(C/C=C/c3ccccc3)CC2)cc1 (centres undefined)
IC50 [1]: > 69.5 µM (inactive) | IC50 [2]: > 69.5 µM (inactive)

O=C(C[C@@H]1CC[C@H]2[C@@H](COC[C@H](O)CN2Cc2ccc(Oc3ccccc3)cc2)O1)N1CCc2ccccc2C1
AbsAC35 [3]: 67.78 µM

COc1cccc(S(=O)(=O)N(C)C[C@@H]2Oc3cc(C4=CCCCC4)ccc3S(=O)(=O)N([C@@H](C)CO)C[C@@H]2C)c1
AbsAC35 [4]: 50.42 µM

CC(C)(C)[S@@+]([O-])N1Cc2cc(C(=O)NCc3ccccc3F)nc(-c3cccc(-c4cccnc4)c3)c2[C@H]1CCO
AbsAC35 [5]: 245.66 µM

C/C1=C\C[C@H](OC(=O)c2ccc(O)cc2)/C(C)=C/[C@@H](O)C(C)(C)CCC1
AC50 [6]: 2 µM (active)

O=C1C(NS(=O)(=O)c2ccc(Br)s2)=C(N2CCOCC2)C(=O)c2ccccc21
AC50 [7]: > 70 µM (inactive) | AC50 [8]: > 70 µM (inactive)

O=C1NC(=O)C(=Cc2ccc(-c3cc([N+](=O)[O-])ccc3O)o2)C(=O)N1
IC50 (NS3): 66.1 µM (active)
